In US10576062B2, “Carbamoyloxymethyl triazole cyclohexyl acids as LPA antagonists” (Bristol-Myers Squibb Company, priority 2016, dated 2020):

Molecular target: T1, human LPA1 (Homo sapiens, UniProt Q92633)
T1 construct: expressed in transfected cells; host or cells: Chinese hamster ovary (CHO) cells
Experiment: LPA1 functional antagonist assay (LPA-induced calcium flux)
Format: cell-based
Details: CHO cells overexpressing human LPA1; inhibition of calcium flux induced by 10 nM LPA; read-out: hLPA1 IC50
Procedure, shortened: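 CHO cells overexpressing human LPA1, loaded with calcium dye 30 min at 37° C, were preincubated 20 min at room temperature with compound (0.08 nM–5 μM, 0.5% DMSO) in HBSS/20 mM HEPES/0.1% fatty acid-free BSA.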

T1 sequence (Q92633 whole entry): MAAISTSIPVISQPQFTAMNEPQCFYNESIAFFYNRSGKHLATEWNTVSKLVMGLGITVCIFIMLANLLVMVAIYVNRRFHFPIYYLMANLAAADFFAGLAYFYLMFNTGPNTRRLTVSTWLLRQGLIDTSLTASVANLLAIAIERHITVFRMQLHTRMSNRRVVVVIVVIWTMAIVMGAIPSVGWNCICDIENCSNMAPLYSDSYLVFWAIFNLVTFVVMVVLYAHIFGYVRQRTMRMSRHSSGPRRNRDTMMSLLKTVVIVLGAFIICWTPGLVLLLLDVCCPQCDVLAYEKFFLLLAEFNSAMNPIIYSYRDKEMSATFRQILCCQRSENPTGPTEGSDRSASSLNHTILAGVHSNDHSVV

Row | Structure (SMILES) | IC50
1 | CCCN(C)C(=O)OCc1c(-c2cnc(O[C@H]3CCC[C@H](C(=O)O)C3)c(C)n2)nnn1C [Example 218, (1S,3S)-3-((3-methyl-5-(1-methyl-5-(((methyl(propyl)carbamoyl)oxy)methyl)-1H-1,2,3-triazol-4-yl)pyrazin-2-yl)oxy)cyclohexane-1-carboxylic Acid] | 194 nM
2 | Cc1nc(-c2nnn(C)c2COC(=O)N(C)CC2CC2)cnc1O[C@H]1CCC[C@H](C(=O)O)C1 [Example 220, (1S,3S)-3-((5-(5-((((cyclopropyl-methyl)(methyl)carbamoyl)oxy)methyl)-1-methyl-1H-1,2,3-triazol-4-yl)-3-methyl-pyrazin-2-yl)oxy)cyclohexane-1-carboxylic acid] | 149 nM
3 | Cc1nc(-c2nnn(C)c2COC(=O)N(C)CC(C)C)cnc1O[C@H]1CCC[C@H](C(=O)O)C1 [Example 224, (1S,3S)-3-((5-(5-(((isobutyl(methyl)carbamoyl)oxy)methyl)-1-methyl-1H-1,2,3-triazol-4-yl)-3-methylpyrazin-2-yl)oxy)cyclohexane-1-carboxylic acid] | 121 nM
4 | Cc1nc(-c2nnn(C)c2COC(=O)N(C)CCCF)cnc1O[C@H]1CCC[C@H](C(=O)O)C1 [Example 230, (1S,3S)-3-((5-(5-((((3-fluoropropyl)(methyl)carbamoyl)oxy)methyl)-1-methyl-1H-1,2,3-triazol-4-yl)-3-methylpyrazin-2-yl)oxy)cyclohexane-1-carboxylic acid] | 390 nM
5 | Cc1nc(-c2nnn(C)c2COC(=O)N(C)CC(C)(C)F)cnc1O[C@H]1CCC[C@H](C(=O)O)C1 [Example 232, (1S,3S)-3-((5-(5-((((2-fluoro-2-methylpropyl)(methyl)carbamoyl)oxy)methyl)-1-methyl-1H-1,2,3-triazol-4-yl)-3-methylpyrazin-2-yl)oxy)cyclohexane-1-carboxylic acid] | 191 nM
6 | Cc1nc(-c2nnn(C)c2COC(=O)N(C)CC2(F)CCC2)cnc1O[C@H]1CCC[C@H](C(=O)O)C1 [Example 233, (1S,3S)-3-((5-(5-(((((1-fluoro-cyclobutyl)methyl)(methyl)carbamoyl)oxy)methyl)-1-methyl-1H-1,2,3-triazol-4-yl)-3-methylpyrazin-2-yl)oxy)cyclohexane-1-carboxylic acid] | 122 nM
7 | CN(CC1CC1)C(=O)OCc1c(-c2cnc(O[C@H]3CCC[C@H](C(=O)O)C3)c(C(F)(F)F)c2)nnn1C [Example 237, (1S,3S)-3-((5-(5-((((cyclopropylmethyl)(methyl)carbamoyl)oxy)methyl)-1-methyl-1H-1,2,3-triazol-4-yl)-3-(trifluoromethyl)pyridin-2-yl)oxy)cyclohexane-1-carboxylic acid] | 2400 nM
8 | CN(C(=O)OCc1c(-c2cnc(O[C@H]3CCC[C@H](C(=O)O)C3)c(C(F)(F)F)c2)nnn1C)C1CCCC1 [Example 238, (1S,3S)-3-((5-(5-(((cyclopentyl(methyl)carbamoyl)oxy)methyl)-1-methyl-1H-1,2,3-triazol-4-yl)-3-(trifluoromethyl)pyridin-2-yl)oxy)cyclohexane-1-carboxylic acid] | 174 nM
9 | CN(CC1CCC1)C(=O)OCc1c(-c2cnc(O[C@H]3CCC[C@H](C(=O)O)C3)c(C(F)(F)F)c2)nnn1C [Example 239, (1S,3S)-3-((5-(5-((((cyclobutylmethyl)(methyl)carbamoyl)oxy)methyl)-1-methyl-1H-1,2,3-triazol-4-yl)-3-(trifluoromethyl)pyridin-2-yl)oxy)cyclohexane-1-carboxylic acid] | 440 nM
10 | CN(C(=O)OCc1c(-c2cnc(O[C@H]3CCC[C@H](C(=O)O)C3)c(C(F)(F)F)c2)nnn1C)C1CCC1 [Example 240, (1S,3S)-3-((5-(5-(((cyclobutyl(methyl)carbamoyl)oxy)methyl)-1-methyl-1H-1,2,3-triazol-4-yl)-3-(trifluoromethyl)pyridin-2-yl)oxy)cyclohexane-1-carboxylic acid] | 1210 nM
11 | CCCN(C)C(=O)OCCc1c(-c2ccc(O[C@H]3CCC[C@H](C(=O)O)C3)c(C)n2)nnn1C [Example 242, (1S,3S)-3-((2-Methyl-6-(1-methyl-5-(2-((methyl(propyl)carbamoyl)oxy)-ethyl)-1H-1,2,3-triazol-4-yl)pyridin-3-yl)oxy)cyclohexane-1-carboxylic acid] | 319 nM

Stronger by IC50, values ahead:

Row | IC50 | Structure (SMILES)
12 | 21 nM | CCCCN(C)C(=O)OCc1c(-c2cnc(O[C@H]3CCC[C@H](C(=O)O)C3)c(C)n2)nnn1C [Example 219, (1S,3S)-3-((5-(5-(((butyl(methyl)carbamoyl)oxy)methyl)-1-methyl-1H-1,2,3-triazol-4-yl)-3-methylpyrazin-2-yl)oxy)cyclohexane-1-carboxylic acid]
13 | 19 nM | Cc1nc(-c2nnn(C)c2COC(=O)N(C)CCC(C)C)cnc1O[C@H]1CCC[C@H](C(=O)O)C1 [Example 222, (1S,3S)-3-((5-(5-(((isopentyl(methyl)carbamoyl)oxy)methyl)-1-methyl-1H-1,2,3-triazol-4-yl)-3-methylpyrazin-2-yl)oxy)cyclohexane-1-carboxylic acid]
14 | 56 nM | CCCCCN(C)C(=O)OCc1c(-c2cnc(O[C@H]3CCC[C@H](C(=O)O)C3)c(C)n2)nnn1C [Example 223, (1S,3S)-3-((3-methyl-5-(1-methyl-5-(((methyl(pentyl)carbamoyl)oxy)methyl)-1H-1,2,3-triazol-4-yl)pyrazin-2-yl)oxy)cyclohexane-1-carboxylic acid]
15 | 70 nM | Cc1nc(-c2nnn(C)c2COC(=O)N(C)CCC2CC2)cnc1O[C@H]1CCC[C@H](C(=O)O)C1 [Example 225, (1S,3S)-3-((5-(5-((((2-cyclopropylethyl)(methyl)carbamoyl)oxy)methyl)-1-methyl-1H-1,2,3-triazol-4-yl)-3-methylpyrazin-2-yl)oxy)cyclohexane-1-carboxylic acid]
16 | 49 nM | Cc1nc(-c2nnn(C)c2COC(=O)N(C)C2CCCC2)cnc1O[C@H]1CCC[C@H](C(=O)O)C1 [Example 226, (1S,3S)-3-((5-(5-(((cyclopentyl(methyl)carbamoyl)oxy)methyl)-1-methyl-1H-1,2,3-triazol-4-yl)-3-methylpyrazin-2-yl)oxy)cyclohexane-1-carboxylic acid]
17 | 18 nM | Cc1nc(-c2nnn(C)c2COC(=O)N(C)CC2CCCC2)cnc1O[C@H]1CCC[C@H](C(=O)O)C1 [Example 227, (1S,3S)-3-((5-(5-((((cyclopentylmethyl)(methyl)carbamoyl)oxy)methyl)-1-methyl-1H-1,2,3-triazol-4-yl)-3-methylpyrazin-2-yl)oxy)cyclohexane-1-carboxylic acid]
18 | 60 nM | Cc1nc(-c2nnn(C)c2COC(=O)N(C)Cc2ccccc2)cnc1O[C@H]1CCC[C@H](C(=O)O)C1 [Example 228, (1S,3S)-3-((5-(5-(((benzyl(methyl)carbamoyl)oxy)methyl)-1-methyl-1H-1,2,3-triazol-4-yl)-3-methylpyrazin-2-yl)oxy)cyclohexane-1-carboxylic acid]
19 | 76 nM | Cc1nc(-c2nnn(C)c2COC(=O)N(C)C2CCC2)cnc1O[C@H]1CCC[C@H](C(=O)O)C1 [Example 229, (1S,3S)-3-((5-(5-(((cyclobutyl(methyl)carbamoyl)oxy)methyl)-1-methyl-1H-1,2,3-triazol-4-yl)-3-methylpyrazin-2-yl)oxy)cyclohexane-1-carboxylic acid]
20 | 88 nM | Cc1nc(-c2nnn(C)c2COC(=O)N(C)CC(C)(C)C)cnc1O[C@H]1CCC[C@H](C(=O)O)C1 [Example 231, (1S,3S)-3-((3-methyl-5-(1-methyl-5-(((methyl(neopentyl)carbamoyl)oxy)methyl)-1H-1,2,3-triazol-4-yl)pyrazin-2-yl)oxy)cyclohexane-1-carboxylic acid]
21 | 72 nM | Cc1nc(-c2nnn(C)c2COC(=O)N(C)CC2(F)CCCC2)cnc1O[C@H]1CCC[C@H](C(=O)O)C1 [Example 234, (1S,3S)-3-((5-(5-(((((1-fluorocyclopentyl)methyl)(methyl)carbamoyl)oxy)methyl)-1-methyl-1H-1,2,3-triazol-4-yl)-3-methylpyrazin-2-yl)oxy)cyclohexane-1-carboxylic acid]
22 | 70 nM | Cc1nc(-c2nnn(C)c2COC(=O)N(C)C[C@@H]2C[C@H]2C)cnc1O[C@H]1CCC[C@H](C(=O)O)C1 [Example 235, (1S,3S)-3-((3-methyl-5-(1-methyl-5-(((methyl(((1R,2R)-2-methylcyclopropyl)methyl)carbamoyl)oxy)methyl)-1H-1,2,3-triazol-4-yl)pyrazin-2-yl)oxy)cyclohexane-1-carboxylic acid]
23 | 46 nM | Cc1nc(-c2nnn(C)c2COC(=O)N(C)C[C@H]2C[C@@H]2C)cnc1O[C@H]1CCC[C@H](C(=O)O)C1 [Example 236, (1S,3S)-3-((3-methyl-5-(1-methyl-5-(((methyl(((1S,2S)-2-methylcyclopropyl)methyl)carbamoyl)oxy)methyl)-1H-1,2,3-triazol-4-yl)pyrazin-2-yl)oxy)cyclohexane-1-carboxylic acid]
24 | 41 nM | Cc1nc(-c2nnn(C)c2CCOC(=O)N(C)CC2CCC2)ccc1O[C@H]1CCC[C@H](C(=O)O)C1 [Example 241, (1S,3S)-3-((6-(5-(2-(((Cyclobutylmethyl)(methyl)carbamoyl)oxy)ethyl)-1-methyl-1H-1,2,3-triazol-4-yl)-2-methylpyridin-3-yl)oxy)cyclohexane-1-carboxylic Acid]
25 | 72 nM | Cc1nc(-c2nnn(C)c2CCOC(=O)N(C)C2CCCC2)ccc1O[C@H]1CCC[C@H](C(=O)O)C1 [Example 243, (1S,3S)-3-((6-(5-(2-((Cyclopentyl-(methyl)carbamoyl)oxy)ethyl)-1-methyl-1H-1,2,3-triazol-4-yl)-2-methylpyridin-3-yl)oxy)cyclohexane-1-carboxylic acid]
26 | 54 nM | Cc1nc(-c2nnn(C)c2CCOC(=O)N(C)Cc2ccccc2)ccc1O[C@H]1CCC[C@H](C(=O)O)C1 [Example 244, (1S,3S)-3-((6-(5-(2-((Benzyl(methyl)-carbamoyl)oxy)ethyl)-1-methyl-1H-1,2,3-triazol-4-yl)-2-methylpyridin-3-yl)oxy)cyclohexane-1-carboxylic acid]
